From PubChem BioAssay (NCI)
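48-hour exposure; five concentrations; linearly interpolated endpoints. The concentration for 50% growth inhibition is given as GI50. Definition used: TGI = concentration required for complete inhibition of growth.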

Legend:
Assay in all cases: NCI anticancer screen, dose series, 48 h
DU-145 prostate = tested on: DU-145 prostate
MCF7 breast = tested on: MCF7 breast
MDA-MB-435 = tested on: MDA-MB-435
NCI-H23 lung = tested on: NCI-H23 lung
NCI/ADR-RES ovarian = tested on: NCI/ADR-RES ovarian
OVCAR-5 ovarian = tested on: OVCAR-5 ovarian
SF-295 CNS = tested on: SF-295 CNS
UO-31 renal = tested on: UO-31 renal
CCRF-CEM leukemia = tested on: CCRF-CEM leukemia
RPMI-8226 leukemia = tested on: RPMI-8226 leukemia

| Compound | TGI (DU-145 prostate) [µM] | TGI (MCF7 breast) [µM] | TGI (MDA-MB-435) [µM] | TGI (NCI-H23 lung) [µM] | TGI (NCI/ADR-RES ovarian) [µM] | TGI (OVCAR-5 ovarian) [µM] | TGI (SF-295 CNS) [µM] | TGI (UO-31 renal) [µM] | TGI (CCRF-CEM leukemia) [µM] | TGI (RPMI-8226 leukemia) [µM] | GI50 (CCRF-CEM leukemia) [µM] | GI50 (MCF7 breast) [µM] | GI50 (MDA-MB-435) [µM] | GI50 (NCI-H23 lung) [µM] | GI50 (NCI/ADR-RES ovarian) [µM] | GI50 (OVCAR-5 ovarian) [µM] | GI50 (RPMI-8226 leukemia) [µM] | GI50 (SF-295 CNS) [µM] | GI50 (UO-31 renal) [µM] |
| --- | --- | --- | --- | --- | --- | --- | --- | --- | --- | --- | --- | --- | --- | --- | --- | --- | --- | --- | --- |
| C=CC(=O)N1C/C(=C\c2ccc(N(C)C)cc2)C(=O)/C(=C/c2ccc(N(C)C)cc2)C1 | > 100 | > 100 | > 100 | > 100 | > 100 | > 100 | > 100 | > 100 |  |  |  |  |  |  |  |  |  |  |  |
| Cc1ccc(C(=O)N(C2CCCCC2)C2CCCCC2)cc1N=NN(C)C |  | 29.7 | 30 | 27.9 | 47.8 | 38.2 | 23.5 | 26 | 54.7 | > 100 |  |  |  |  |  |  |  |  |  |
| CN(C)C(=S)N/N=C\C=N/NC(=S)N(C)C | > 40.7 | > 100 | > 100 | > 58.8 |  | > 100 | > 32.1 | > 100 |  | > 100 |  |  |  |  |  |  |  |  |  |
| S=C1c2ccccc2NC(=NC2CCCC2)C2CSCN12 (stereo unspecified) | > 100 | > 100 | > 100 |  | > 100 | > 100 | > 100 | > 100 | > 100 | > 100 |  |  |  |  |  |  |  |  |  |
| COc1cccc2cc(C)c(C(=O)c3ccccc3)nc12 |  |  |  | > 100 |  | > 100 | > 100 | > 100 | > 100 | > 100 |  |  |  |  |  |  |  |  |  |
| N/N=C(\C(=O)Nc1c(Cl)cc([N+](=O)[O-])cc1Cl)C(c1cnc2ccc([N+](=O)[O-])cc2n1)[N+](=O)[O-] (stereo unspecified) |  |  |  | > 100 |  | > 100 | > 100 | > 100 | > 100 | > 100 |  |  |  |  |  |  |  |  |  |
| Oc1ccc(/C=C\c2nnc(/C=C\c3ccc(O)c(O)c3)s2)cc1O | 18.8 | 12.8 | 15.1 | 17.7 | > 59.2 | > 86.5 | 24.8 | 7.78 | 2.16 |  |  |  |  |  |  |  |  |  |  |
| c1ccc2c(-c3cnc(-c4c[nH]c5ccccc45)cn3)c[nH]c2c1 | > 100 | > 100 | 78.5 | > 100 | > 100 | > 100 | 50.4 | > 100 |  | > 100 |  |  |  |  |  |  |  |  |  |
| CC(=O)C1CC(C)=CCC12C(=O)Nc1ccccc12 (stereo unspecified) |  |  |  | > 100 |  | > 100 | > 100 |  | > 100 | > 100 |  |  |  |  |  |  |  |  |  |
| CCCCOC(=O)C(=O)C(CCC(=O)c1ccc(C)cc1)C(=O)C=C(C)C (stereo unspecified) |  | > 100 | > 100 | > 100 | > 100 | > 100 | > 100 | > 100 | > 100 | > 100 |  |  |  |  |  |  |  |  |  |
| CCNC(=O)Nc1cccc(C)n1 | > 100 | > 100 | > 100 | > 100 |  | > 100 | > 100 | > 100 | > 100 |  |  |  |  |  |  |  |  |  |  |
| O=[N+]([O-])c1cccc(-c2csc(N=Nc3c(O)[nH]c4ccccc34)n2)c1 | 65.9 | > 100 | > 100 | > 100 | 29.6 | > 100 | 44.4 | > 100 | 56.5 |  |  |  |  |  |  |  |  |  |  |
| COc1ccc(N(C(=O)Nc2ccc(Cl)c(Cl)c2)c2ccccc2)cc1 | > 10 | > 10 | > 10 | > 10 | > 10 | > 10 | > 10 | > 10 | > 10 |  |  |  |  |  |  |  |  |  |  |
| COc1ccc2c3c1OC1CC(O)C=CC31CCN(C)C2 (stereo unspecified) |  | > 48.8 |  | > 150 | > 150 | > 150 | > 150 | > 150 | > 150 | > 150 |  |  |  |  |  |  |  |  |  |
| CCN(CC)Cc1nc2sc3c(c2c(=O)n1-c1ccccc1)CCCC3 | 47.8 | 36 |  | 81.2 | 62.1 | 63.1 | 66.3 | 23.3 | > 100 | 81.9 |  |  |  |  |  |  |  |  |  |
| COc1cc(OC)c2c(O)cc(CC(C)O)cc2c1 (stereo unspecified) |  |  |  | > 100 |  | > 100 | > 100 | > 100 | > 100 | > 100 |  |  |  |  |  |  |  |  |  |
| COC1C(O)CC(OC2C(C)OC(Oc3cc(O)c4c(O)c5c(cc4c3)C[C@@H]([C@H](OC)C(=O)[C@@H](O)[C@@H](C)O)[C@H](OC3CC(OC4CC(OC6CC(C)(O)C(O)C(C)O6)C(O)C(C)O4)C(O)C(C)O3)C5=O)CC2OC(C)=O)OC1C (stereo partly specified) | > 100 | > 100 | > 100 | > 100 | > 100 | > 100 |  | > 100 | > 100 | > 100 |  |  |  |  |  |  |  |  |  |
| CCc1cccc(C(C)C)c1NC(=O)C(=O)C(Cc1nc2ccccc2[nH]c1=O)C(=O)OC (stereo unspecified) |  |  |  | > 100 |  | > 100 | > 100 | > 100 | > 100 | > 100 |  |  |  |  |  |  |  |  |  |
| CSc1c(C(=O)Nc2ccccc2)c(N)nn1-c1ccccc1 | > 100 | > 100 | > 100 | > 100 | > 100 | > 100 |  | > 100 | > 100 | > 100 |  |  |  |  |  |  |  |  |  |
| COC(=O)CCCc1ccc2c(c1)CC1(C2)Cc2cc3c(cc2C1)CCCC3 |  | > 100 | 40.3 | > 100 | > 100 | > 100 | > 100 | > 100 |  | 85.2 |  |  |  |  |  |  |  |  |  |
| Cc1ccc2[nH]cc(-c3nc(-c4c[nH]c5ncccc45)cs3)c2c1 |  | > 100 | > 100 | > 100 | > 100 | > 100 | > 100 | > 100 | > 100 | > 100 | > 100 | > 100 | > 100 | > 100 | > 100 | > 100 | > 100 | > 100 | 0.244 |
| CCCC/C=C1\CCC(CN2CCCCC2)C1=O (stereo unspecified) | > 100 | > 100 | > 100 | 45.1 | > 100 | 49.9 | 45.5 | 47.7 | 16.2 |  |  |  |  |  |  |  |  |  |  |
